In US8754190B2, “Controlled release from macromolecular conjugates” (Prolynx LLC, priority 2010, dated 2014):

How the values were obtained:
[1] = pH 7.4
Procedure: Kinetics for release of N-(6-(2,4-dinitrophenyl)aminohexanoyl)-serine from O—(N-(9-fluorenylmethoxycarbonyl-N-phenyl)aminomethyl)-serine in 0.1 M HEPES buffer, 15 mM NaCl, pH 7.40, 37° C. are shown in FIG. 4.

[2] = pH 7.4; remark: listed apart in the source
[3] = Hydrolysis of carbamate in 50% human serum; format: in vitro ADME; conditions: after 1 week at 37° C.
Text: In general, compared to C—H, a) electron withdrawing groups at the beta position increase the rate; b) alkyl groups at the alpha position increase the rate; and c) aryl moieties at the alpha position decrease the rate.

[4] = Release of Nε-2,4-dinitrophenyl-L-lysine from model linker carbamates (β-eliminative cleavage), HPLC; format: physicochemical; conditions: after 5 days at 37° C. and pH 7.4; no observable release, below estimated detection limit
Procedure: A series of model linker scaffolds having a range of functional groups as potential pKa modulators (substituted aromatics, ketones, nitriles, sulfones) were designed, prepared and linked via carbamate bonds to Ne-2,4-dinitrophenyl-L-lysine (Ne-DNP-Lys) for evaluation of release rates. DNP-Lys was chosen as the released moiety as it is water soluble and is a strong chromophore to permit HPLC-UV analysis.
The rates of release of Nε-2,4-dinitrophenyl-L-lysine from these compounds were determined at pH 7.4 or pH 8.3, 37° C., by HPLC analysis. Kinetic analyses of the release reactions were performed by HPLC (C18; linear methanol/water+0.5% HOAc gradient) using a UV/vis monitor at 350 nm. The areas under the Lys(DNP) (“P”) and starting material (“S”) peaks were integrated to determine extent of reaction (“R”) as R=P/(S+P). Reaction rates were calculated from the slope the line obtained by linear regression analysis of a plot of ln(1−R) versus time.

Q: With `O=C(CCCCCNc1ccc([N+](=O)[O-])cc1[N+](=O)[O-])N[C@@H](COCN(C(=O)OCC1c2ccccc2-c2ccccc21)c1ccccc1)C(=O)O` [Example 11B] as the molecule, how does the “T1/2 of release of N-(6-(2,4-dinitrophenyl)aminohexanoyl)-serine” value [1] read?
A: 16.7 days

Q: For `O=C(O)[C@H](CSCN(C(=O)OCC1c2ccccc2-c2ccccc21)c1ccccc1)Nc1ccc([N+](=O)[O-])cc1[N+](=O)[O-]` [Example 11C, S—(N-(9-Fluorenylmethoxycarbonyl-N-Phenylamino)Methyl)N-(2,4-Dinitrophenyl)-Cysteine], which “T1/2 of release of N-(2,4-dinitrophenyl)-cysteine” value [2] is on record?
A: 4.17 days

Q: With `O=C(N[C@@H](CCCCNc1ccc([N+](=O)[O-])cc1[N+](=O)[O-])C(=O)O)OCc1ccccc1` [O-benzyl-N—(Nε-2,4-dinitrophenyl-L-lysine)-carbamate] as the molecule, how does the “hydrolysis in 50% human serum” value [3] read?
A: no detectable hydrolysis

Q: And the “release of Nε-2,4-dinitrophenyl-L-lysine (cleavage)” value [4]?
A: < 0.25%
